Patent US5527821A, “Pharmacologically active alpha-[tertiary-aminomethyl]-benzenemethanol derivatives” (Pharmacia AB, priority 1992, dated 1996)
Where a name gives a salt, the structure may show the parent alone. Read-outs that look alike come from different tables or passages of the source.

What was measured:
[1] = system: isolated rabbit portal vein; assay: Effects on the isolated rabbit portal vein (contraction, in vitro); assay type: cell-based; conditions: for EC50 / Emax: Oryctolagus cuniculus; for EC50: read-out: Portal vein, in vitro: EC50 value (effective concentration inducing a half maximum contraction); for Portal vein, in vitro: Max. contraction / Emax: cumulative addition (12 concentrations), reference noradrenaline 6×10^-5 M
Experimental: (§1) Female rabbits weighing 2.5-3.0 kg were sacrificed and exsanguinated. The urethra and portal vein were dissected out and suspended in organ baths containing oxygenated Krebs solution at 37° C. Two rings of urethra (4 mm broad) and two longitudinal strips of the portal vein were used. The basal tension was adjusted to about 10 mN after an equilibration time of 60 minutes. Isometric tension was recorded via a force transducer (Statham FT03) and registered on a Grass polygraph model 7.
(§2) Submaximum concentrations of noradrenaline (6×10^-5 M) were used to achieve reference contractions.
(§3) The test substances were added cumulatively (12 concentrations) until a maximum response was obtained.

isolated rabbit urethra = assay: Effects on the isolated rabbit urethra (contraction, in vitro); assay type: cell-based; conditions: Krebs solution, 37° C.; for Emax / Urethra, in vitro: Max. contraction: cumulative addition (12 concentrations), reference noradrenaline 6×10^-5 M; for EC50: cumulative addition
Experimental: as §1, §2, §3

[2] = system: blood pressure in anaesthetized rabbits; assay: Effects on blood pressure in anaesthetized rabbits; assay type: in vivo, rabbit; conditions: i.v. injections of different doses, femoral artery catheter
Experimental: (§4) Rabbits, weighing 2.5-3 kg, were anaesthetized by pentobarbitone (initially 40 mg/kg i.v. and for maintenance anaesthesia 10 mg/kg, h). For recording of urethral pressure a catheter (Dog cath nr 6.) was inserted into the urethra and placed at the point of highest pressure. The basal urethral pressure was approximately 10 cm H2 O. The blood pressure was recorded via a catheter (PP50) inserted into a femoral artery. Substances were injected intravenously into a catheter in a femoral vein. The continuous intravenous infusion of pentobarbitone kept the depth of anesthesia at a constant level through the experiment. Three consecutive noradrenaline injections (0.025 μg/kg i.v.) were given initially to constitute reference responses. Repeated intravenous injections of different doses of the same test compound were given in a randomized manner. […] In other pharmacological experiments (not described here) it was also shown that the described compounds had no or minimal effect on other organs, such as for example the urinary bladder, central nervous system, intestine, vas deferens etc.

[3] = system: urethra (urethral pressure in anaesthetized rabbits); assay: Effects on urethral pressure in anaesthetized rabbits; assay type: in vivo, rabbit; conditions: reference noradrenaline 0.025 μg/kg i.v.
Experimental: as §4

[4] = female rabbit portal vein longitudinal strips, Krebs solution, 37° C.
[5] = Oryctolagus cuniculus, read-out: Urethra, in vitro: Max. contraction, female rabbit urethra rings
[6] = read-out: Urethra, in vitro: EC50-value (effective concentration inducing a half maximum contraction), female rabbit urethra rings
[7] = anaesthetized rabbits, i.v. injections of different doses
[8] = read-out: Portal vein, in vitro: Max. contraction, female rabbit portal vein longitudinal strips, Krebs solution, 37° C.
[9] = Oryctolagus cuniculus, read-out: Urethra, in vitro: EC50-value (effective concentration inducing a half maximum contraction), female rabbit urethra rings
[10] = Oryctolagus cuniculus, iv, read-out: Max. urethral pressure in vivo, in % of NA-max, anaesthetized rabbits, i.v. injections of different doses
[11] = female rabbit portal vein longitudinal strips, Krebs solution, 37° C., read-out: Portal vein, in vitro: Max. contraction
[12] = Oryctolagus cuniculus, female rabbit urethra rings, read-out: Urethra, in vitro: Max. contraction
[13] = Oryctolagus cuniculus, female rabbit urethra rings, read-out: Urethra, in vitro: EC50-value (effective concentration inducing a half maximum contraction)
[14] = female rabbit portal vein longitudinal strips, cumulative addition, Krebs solution, 37° C.
[15] = Oryctolagus cuniculus, iv, anaesthetized rabbits, i.v. injections of different doses, read-out: Max. urethral pressure in vivo, in % of NA-max

Row | Compound | EC50 [1] [µM] | Emax (isolated rabbit urethra; [5]) [%] | Blood pressure; max change, in % [2] [%] | Emax [1, 8] [%] | EC50 (isolated rabbit urethra; [9]) [µM] | Emax [3, 10] [%] | also measured
1 | COc1cccc(C(O)CN(C)C)c1OC(C)C (single isomer, unassigned) [Compound 6:3, (+)-α-[(dimethylamino)methyl]-3-methoxy-2-(1-methylethoxy)-benzenemethanol] | 120 | 106 | 14 |  |  |  | Portal vein, in vitro: Max. contraction [1, 4]: 34 % of NA-max; EC50 (isolated rabbit urethra; [6]): 6.5 µM; Max. urethral pressure in vivo, in % of NA-max [3, 7]: 288 % of NA-max
2 | COc1cccc(C(O)CN(C)C)c1OC(C)C (single isomer, unassigned) [Compound 6:4, (-)-α-[(dimethylamino)methyl]-3-methoxy-2-(1-methylethoxy)-benzenemethanol] |  |  | 11 |  |  |  | Portal vein, in vitro: Max. contraction [1, 4]: 8 % of NA-max; Urethra, in vitro: Max. contraction (isolated rabbit urethra; female rabbit urethra rings): 88 % of NA-max; EC50 (isolated rabbit urethra; [6]): 61 µM; Max. urethral pressure in vivo, in % of NA-max [3, 7]: 150 % of NA-max
3 | CC(C)Oc1c(Cl)cccc1C(O)CN(C)C (single isomer, unassigned; (+)) [Compound 6:2, (+)-3-chloro-α-[(dimethylamino)methyl]-2-(1-methylethoxy)-benzenemethanol] | 17 |  |  |  |  |  | Portal vein, in vitro: Max. contraction [1, 4]: 15 % of NA-max; Urethra, in vitro: Max. contraction (isolated rabbit urethra; female rabbit urethra rings): 107 % of NA-max; EC50 (isolated rabbit urethra; [6]): 4.5 µM
4 | CC(C)Oc1c(Cl)cccc1C(O)CN(C)C (single isomer, unassigned; (-)) [Compound 6:1] |  |  |  | 9 |  |  | Urethra, in vitro: Max. contraction (isolated rabbit urethra; female rabbit urethra rings): 69 % of NA-max; EC50 (isolated rabbit urethra; [6]): 21 µM
5 | Cc1cccc(C(O)CN(C)C)c1OC(C)C (stereo not drawn) [Compound 1, α-[(Dimethylamino)methyl]-2-(1-methylethoxy)-3-methyl-benzenemethanol, hydrochloride] | 24 | 85 |  | 47 | 24 |  | 
6 | CCOc1c(Cl)cccc1C(O)CN(C)C.Cl (stereo not drawn) [Compound 2, 3-Chloro-α-[(dimethylamino)methyl]-2-ethoxy-benzenemethanol, hydrochloride] | 6.7 | 105 | 9 | 22 | 18 | 123 | 
7 | CCN(CC)CC(O)c1cccc(OC)c1OC(C)C (stereo not drawn) [Compound 3, α-[(Diethylamino)methyl]-3-methoxy-2-(1-methylethoxy)-benzenemethanol, hydrogen oxalate] | 130 | 105 | -2 | 11 | 6.6 | 131 | 
8 | COc1cccc(C(O)CN(C)C)c1OC(C)C (stereo not drawn) [Compound 4, α-[(Dimethylamino)methyl]-3-methoxy-2-(1-methylethoxy)-benzenemethanol, hydrogen oxalate] | 87 | 95 | 10 | 35 | 5.7 | 211 | 
9 | COc1cccc(C(O)CN2CCCC2)c1OC(C)C (stereo not drawn) [Compound 5, 3-Methoxy-2-(1-methylethoxy)-α-pyrrolidinomethyl-benzenemethanol, hydrochloride] |  |  |  |  |  |  | Emax [1, 11]: 6%; Emax (isolated rabbit urethra; [12]): 68%; EC50 (isolated rabbit urethra; [13]): 110 µM
10 | CC(C)Oc1c(Cl)cccc1C(O)CN1CCCC1 (stereo not drawn) [Compound 7, 3-Chloro-2-(1-methylethoxy)-α-pyrrolidinomethyl-benzenemethanol, hydrogen oxalate] |  |  | -3 |  |  |  | Emax [1, 11]: 14%; EC50 [1, 14]: 41 µM; Emax (isolated rabbit urethra; [12]): 73%; EC50 (isolated rabbit urethra; [13]): 12 µM; Emax [3, 15]: 189%
11 | CC=COc1c(OC)cccc1C(O)CN1CCCC1.O=C(O)C(=O)O (stereo not drawn) [Compound 8, 3-Methoxy-2-(1-propenyloxy)-α-pyrrolidinomethyl-benzenemethanol, hydrogen oxalate] |  |  |  |  |  |  | Portal vein, in vitro: Max. contraction [1, 4]: 0 % of NA-max; Urethra, in vitro: Max. contraction (isolated rabbit urethra; female rabbit urethra rings): 52 % of NA-max; EC50 (isolated rabbit urethra; female rabbit urethra rings, read-out: Urethra, in vitro: EC50-value (effective concentration inducing a half maximum contraction)): 190 µM
12 | CC(C)Oc1c(Cl)cccc1C(O)CN(C)C.Cl (stereo not drawn) [Compound 9, 3-Chloro-α-[(dimethylamino)methyl]-2-(1-methylethoxy)-benzenemethanol, hydrochloride] | 60 | 79 | 14 | 22 | 11 | 192 | 
13 | CCN(CC)CC(O)c1cccc(Cl)c1OC(C)C (stereo not drawn) [Compound 10, 3-Chloro-α-[(diethylamino)methyl]-2-(1-methylethoxy)-benzenemethanol, hydrogen oxalate] | 11 | 81 |  | 28 | 12 |  | 
14 | CCN(C)CC(O)c1cccc(Cl)c1OC(C)C.Cl (stereo not drawn) [Compound 11, 3-Chloro-α-[(N-ethyl-N-methylamino)methyl]-2-(1-methylethoxy)-benzenemethanol, hydrochloride] | 4.5 | 100 | 34 | 54 | 5.3 | 210 | 
15 | CC(C)Oc1c(C(O)CN(C)C)cccc1[N+](=O)[O-] (stereo not drawn) [Compound 12, α-[(Dimethylamino)methyl]-2-(1-methylethoxy)-3-nitro-benzenemethanol, hydrochloride] | 17 | 80 |  | 18 | 11 |  | 
16 | CC(C)Sc1c(Cl)cccc1C(O)CN(C)C (stereo not drawn) [Compound 13, 3-Chloro-α-[(dimethylamino)methyl]-2-(1-methylethylthio)-benzenemethanol, hydrochloride] |  | 45 |  | 4 | 77 |  | 
17 | COc1cccc(C(O)CN(C)C)c1SC(C)C (stereo not drawn) [Compound 14, α-[(Dimethylamino)methyl]-3-methoxy-2-(1-methylethylthio)-benzenemethanol, hydrochloride] |  | 67 |  | 5 | 11 |  | 
18 | C=CCOc1c(OC)cccc1C(O)CN(C)C (stereo not drawn) [Compound 15, α-[(Dimethylamino)methyl]-3-methoxy-2-(2-propenyloxy)-benzenemethanol, hydrogen oxalate] | 90 | 104 |  | 11 | 47 |  | 
19 | NC[C@H](O)c1ccc(O)c(O)c1 [Noradrenaline, noradrenaline, reference compound] |  |  |  |  |  |  | Emax [1, 11]: 100%; EC50 [1, 14]: 5.3 µM; Emax (isolated rabbit urethra; [12]): 100%; EC50 (isolated rabbit urethra; [13]): 16 µM; Emax at 2.5e-05 mg/kg [3, 15]: 100%
20 | CC(N)C(O)c1ccccc1 (stereo not drawn) [PPA, phenylpropanolamine, reference compound] | 70 | 60 | 72 | 67 | 200 | 99 | 
